Assay results taken from the supplement of paper PMC10307832.

Columns and labels:
Experiment in all cases: relative viability (nuclei count vs DMSO), 5 days (fraction); higher = more cells survive
KN-93 = compound: CN(C/C=C/C1=CC=C(C=C1)Cl)CC2=CC=CC=C2N(CCO)S(=O)(=O)C3=CC=C(C=C3)OC [KN-93]
Procedure, shortened: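 Five library-drug doses, separated by factors of √10, were pinned into 1536-well plates holding lung cancer cell lines after an overnight stay at 37 °C. Cells were fixed, permeabilised and Hoechst-stained in one step after 5 days without medium change, then imaged at 4×. Viability compares treated-well with vehicle-well nuclei, counted in MetaXpress, as a median across plates. Passing plates had control CV below 25% and at least one doubling.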

KN-93 + Bortezomib = compound: CN(C/C=C/C1=CC=C(C=C1)Cl)CC2=CC=CC=C2N(CCO)S(=O)(=O)C3=CC=C(C=C3)OC [KN-93] + CC(C)C[C@H](NC(=O)[C@H](Cc1ccccc1)NC(=O)c1cnccn1)B(O)O [Bortezomib] (partner 0.002 µM)
Procedure, shortened: (§1)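 Lung cancer cell lines were pin-tool dosed in 1536-well plates on the day after seeding, with either a lone drug or a fixed anchor-drug dose plus five library-drug doses (not always all listed) in √10 steps. Nuclei were counted on 4× images after 5 days. Relative viability is the ratio of treated-well to vehicle-well nuclei counts, with each value a median of duplicate plates.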

KN-93 + Luminespib = compound: CN(C/C=C/C1=CC=C(C=C1)Cl)CC2=CC=CC=C2N(CCO)S(=O)(=O)C3=CC=C(C=C3)OC [KN-93] + CCNC(=O)c1noc(-c2cc(C(C)C)c(O)cc2O)c1-c1ccc(CN2CCOCC2)cc1 [Luminespib] (partner 0.01 µM)
Procedure, shortened: as §1

KN-93 + Foretinib = compound: CN(C/C=C/C1=CC=C(C=C1)Cl)CC2=CC=CC=C2N(CCO)S(=O)(=O)C3=CC=C(C=C3)OC [KN-93] + COc1cc2c(Oc3ccc(NC(=O)C4(C(=O)Nc5ccc(F)cc5)CC4)cc3F)ccnc2cc1OCCCN1CCOCC1 [Foretinib] (partner 0.25 µM)
Procedure, shortened: as §1

KN-93 + OSI-027 = compound: CN(C/C=C/C1=CC=C(C=C1)Cl)CC2=CC=CC=C2N(CCO)S(=O)(=O)C3=CC=C(C=C3)OC [KN-93] + COc1cccc2cc(-c3nc([C@H]4CC[C@H](C(=O)O)CC4)n4ncnc(N)c34)[nH]c12 [OSI-027] (partner 0.5 µM)
Procedure, shortened: as §1

KN-93 + Lapatinib = compound: CN(C/C=C/C1=CC=C(C=C1)Cl)CC2=CC=CC=C2N(CCO)S(=O)(=O)C3=CC=C(C=C3)OC [KN-93] + CS(=O)(=O)CCNCc1ccc(-c2ccc3ncnc(Nc4ccc(OCc5cccc(F)c5)c(Cl)c4)c3c2)o1 [Lapatinib] (partner 2 µM)
Procedure, shortened: as §1

KN-93 + Pictilisib = compound: CN(C/C=C/C1=CC=C(C=C1)Cl)CC2=CC=CC=C2N(CCO)S(=O)(=O)C3=CC=C(C=C3)OC [KN-93] + CS(=O)(=O)N1CCN(Cc2cc3nc(-c4cccc5[nH]ncc45)nc(N4CCOCC4)c3s2)CC1 [Pictilisib] (partner 1 µM)
Procedure, shortened: as §1

KN-93 + Crizotinib = compound: CN(C/C=C/C1=CC=C(C=C1)Cl)CC2=CC=CC=C2N(CCO)S(=O)(=O)C3=CC=C(C=C3)OC [KN-93] + C[C@@H](Oc1cc(-c2cnn(C3CCNCC3)c2)cnc1N)c1c(Cl)ccc(F)c1Cl [Crizotinib] (partner 1 µM)
Procedure, shortened: as §1

KN-93 + Linsitinib = compound: CN(C/C=C/C1=CC=C(C=C1)Cl)CC2=CC=CC=C2N(CCO)S(=O)(=O)C3=CC=C(C=C3)OC [KN-93] + C[C@]1(O)C[C@@H](c2nc(-c3ccc4ccc(-c5ccccc5)nc4c3)c3c(N)nccn32)C1 [Linsitinib] (partner 1 µM)
Procedure, shortened: as §1

KN-93 + Alpelisib = compound: CN(C/C=C/C1=CC=C(C=C1)Cl)CC2=CC=CC=C2N(CCO)S(=O)(=O)C3=CC=C(C=C3)OC [KN-93] + Cc1nc(NC(=O)N2CCC[C@H]2C(N)=O)sc1-c1ccnc(C(C)(C)C(F)(F)F)c1 [Alpelisib] (partner 2 µM)
Procedure, shortened: as §1

KN-93 + Dasatinib = compound: CN(C/C=C/C1=CC=C(C=C1)Cl)CC2=CC=CC=C2N(CCO)S(=O)(=O)C3=CC=C(C=C3)OC [KN-93] + Cc1nc(Nc2ncc(C(=O)Nc3c(C)cccc3Cl)s2)cc(N2CCN(CCO)CC2)n1 [Dasatinib] (partner 0.075 µM)
Procedure, shortened: as §1

KN-93 + Phenformin = compound: CN(C/C=C/C1=CC=C(C=C1)Cl)CC2=CC=CC=C2N(CCO)S(=O)(=O)C3=CC=C(C=C3)OC [KN-93] + N=C(N)NC(=N)NCCc1ccccc1 [Phenformin] (partner 250 µM)
Procedure, shortened: as §1

KN-93 + Pemetrexed = compound: CN(C/C=C/C1=CC=C(C=C1)Cl)CC2=CC=CC=C2N(CCO)S(=O)(=O)C3=CC=C(C=C3)OC [KN-93] + Nc1nc2[nH]cc(CCc3ccc(C(=O)N[C@@H](CCC(=O)O)C(=O)O)cc3)c2c(=O)[nH]1 [Pemetrexed] (partner 0.2 µM)
Procedure, shortened: as §1

NCI-H1563
relative viability (KN-93; 0.08 µM): 0.967
relative viability (KN-93; 0.253 µM): 0.936
relative viability (KN-93; 2.53 µM): 0.88
relative viability (KN-93; 8 µM): 0.758
relative viability (KN-93 + Bortezomib; first compound 0.08 µM): 1
relative viability (KN-93 + Bortezomib; first compound 0.253 µM): 0.884
relative viability (KN-93 + Bortezomib; first compound 2.53 µM): 0.778
relative viability (KN-93 + Bortezomib; first compound 8 µM): 0.675
relative viability (KN-93 + Luminespib; first compound 0.08 µM): 0.625
relative viability (KN-93 + Luminespib; first compound 0.253 µM): 0.483
relative viability (KN-93 + Luminespib; first compound 2.53 µM): 0.577
relative viability (KN-93 + Luminespib; first compound 8 µM): 0.517
relative viability (KN-93 + Foretinib; first compound 0.08 µM): 0.918
relative viability (KN-93 + Foretinib; first compound 0.253 µM): 0.878
relative viability (KN-93 + Foretinib; first compound 2.53 µM): 0.858
relative viability (KN-93 + Foretinib; first compound 8 µM): 0.659
relative viability (KN-93 + OSI-027; first compound 0.08 µM): 0.841
relative viability (KN-93 + OSI-027; first compound 0.253 µM): 0.789
relative viability (KN-93 + OSI-027; first compound 2.53 µM): 0.745
relative viability (KN-93 + OSI-027; first compound 8 µM): 0.566
relative viability (KN-93 + Lapatinib; first compound 0.08 µM): 0.946
relative viability (KN-93 + Lapatinib; first compound 0.253 µM): 1
relative viability (KN-93 + Lapatinib; first compound 2.53 µM): 0.937
relative viability (KN-93 + Lapatinib; first compound 8 µM): 0.641
relative viability (KN-93 + Pictilisib; first compound 0.08 µM): 0.661
relative viability (KN-93 + Pictilisib; first compound 0.253 µM): 0.618
relative viability (KN-93 + Pictilisib; first compound 2.53 µM): 0.648
relative viability (KN-93 + Pictilisib; first compound 8 µM): 0.608
relative viability (KN-93 + Crizotinib; first compound 0.08 µM): 0.875
relative viability (KN-93 + Crizotinib; first compound 0.253 µM): 0.845
relative viability (KN-93 + Crizotinib; first compound 2.53 µM): 0.643
relative viability (KN-93 + Crizotinib; first compound 8 µM): 0.601
relative viability (KN-93 + Linsitinib; first compound 0.08 µM): 1.22
relative viability (KN-93 + Linsitinib; first compound 0.253 µM): 1.2
relative viability (KN-93 + Linsitinib; first compound 2.53 µM): 1.02
relative viability (KN-93 + Linsitinib; first compound 8 µM): 0.934
relative viability (KN-93 + Alpelisib; first compound 0.08 µM): 0.922
relative viability (KN-93 + Alpelisib; first compound 0.253 µM): 0.947
relative viability (KN-93 + Alpelisib; first compound 2.53 µM): 0.906
relative viability (KN-93 + Alpelisib; first compound 8 µM): 0.758
relative viability (KN-93 + Dasatinib; first compound 0.08 µM): 0.473
relative viability (KN-93 + Dasatinib; first compound 0.253 µM): 0.415
relative viability (KN-93 + Dasatinib; first compound 2.53 µM): 0.471
relative viability (KN-93 + Dasatinib; first compound 8 µM): 0.377
relative viability (KN-93 + Phenformin; first compound 0.08 µM): 0.706
relative viability (KN-93 + Phenformin; first compound 0.253 µM): 0.633
relative viability (KN-93 + Phenformin; first compound 2.53 µM): 0.647
relative viability (KN-93 + Phenformin; first compound 8 µM): 0.626
relative viability (KN-93 + Pemetrexed; first compound 0.08 µM): 0.759
relative viability (KN-93 + Pemetrexed; first compound 0.253 µM): 0.822
relative viability (KN-93 + Pemetrexed; first compound 2.53 µM): 0.799
relative viability (KN-93 + Pemetrexed; first compound 8 µM): 0.597
